This note sets out measurements from ChEMBL document CHEMBL1155245, “Diazen-1-ium-1,2-diolated nitric oxide donor ester prodrugs of 5-(4-carboxymethylphenyl)-1-(4-methanesulfonylphenyl)-3-trifluoromethyl-1H-pyrazole and its aminosulfonyl analog: Synthesis, biological evaluation and nitric oxide release studies” (Bioorg Med Chem, 2009).

Series [1] in a line: Induction of nitric oxide release in phosphate buffer at pH 7.4. It counts as physicochemical.
For series [2], the system named is Serum. In words: Induction of nitric oxide release in rat serum containing phosphate buffer at pH 7.4. It counts as functional. More on the design: concentration or dose not given beside the values.
Series [3] deals with T1, Prostaglandin G/H synthase 1 (Ovis aries, UniProt P05979).
T1 sequence (P05979 whole entry): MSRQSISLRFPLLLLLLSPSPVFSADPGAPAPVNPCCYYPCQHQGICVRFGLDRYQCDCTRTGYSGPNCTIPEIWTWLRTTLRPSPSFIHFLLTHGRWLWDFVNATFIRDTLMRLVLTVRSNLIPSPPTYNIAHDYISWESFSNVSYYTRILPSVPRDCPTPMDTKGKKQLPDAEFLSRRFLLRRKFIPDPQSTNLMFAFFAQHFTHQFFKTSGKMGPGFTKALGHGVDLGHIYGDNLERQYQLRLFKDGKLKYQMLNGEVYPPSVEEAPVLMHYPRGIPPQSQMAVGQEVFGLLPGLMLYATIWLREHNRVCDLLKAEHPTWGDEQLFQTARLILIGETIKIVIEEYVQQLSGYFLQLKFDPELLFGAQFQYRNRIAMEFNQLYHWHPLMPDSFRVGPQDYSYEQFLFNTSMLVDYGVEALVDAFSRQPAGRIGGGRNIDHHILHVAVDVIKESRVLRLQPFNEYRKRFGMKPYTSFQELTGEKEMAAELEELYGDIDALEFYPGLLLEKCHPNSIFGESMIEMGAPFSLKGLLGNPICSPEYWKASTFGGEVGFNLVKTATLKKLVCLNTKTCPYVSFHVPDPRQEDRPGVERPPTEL
Description: Inhibition of ovine COX1 by enzyme immunoassay

The test system of series [4] is Rattus norvegicus. Description: Antiinflammatory activity in po dosed rat assessed as inhibition of carrageenan-induced paw edema after 3 hrs. It counts as functional. On the technique in general: The carrageenan paw model is a standard test of acute inflammation.
Series [5] is filed under the species Rattus norvegicus. Description: animal or person. It counts as functional. Particulars: 3 h.
Series [6] in a line: Selectivity ratio of IC50 for ovine COX1 to IC50 for human COX2.

Take `CC(=O)OCO/N=[N+](\[O-])N1CCC[C@H]1COC(=O)Cc1ccc(-c2cc(C(F)(F)F)nn2-c2ccc(S(C)(=O)=O)cc2)cc1`: the Activity in series [1] worked out at 5%; in series [2], 62.9%. In addition, in series [3], the IC50 (in general, the concentration that inhibits the measured activity by half) was found to be 11.8 µM.

Regarding `CC(=O)OCO/N=[N+](\[O-])N(C)CCOC(=O)Cc1ccc(-c2cc(C(F)(F)F)nn2-c2ccc(S(C)(=O)=O)cc2)cc1`, the values for the Activity in series [1] and in series [2] were 6.9% and 72.2%, respectively. Further, in series [3], inhibition was half-maximal at 8.2 µM (IC50).

As for `CS(=O)(=O)c1ccc(-n2nc(C(F)(F)F)cc2-c2ccc(CC(=O)O)cc2)cc1`, in series [4], the ED50 (commonly the dose at which the effect has come halfway, by size or by number of responders) came to 216 µmol/kg. The half-inhibitory concentration (IC50) in series [3] worked out at 65.2 µM.

`CC(=O)OCO/N=[N+](\[O-])N(C)CCOC(=O)Cc1ccc(-c2cc(C(F)(F)F)nn2-c2ccc(S(N)(=O)=O)cc2)cc1`: the Activity stood at 7.2% in series [1] and 74.6% in series [2]. In series [5], the inhibition in vivo (commonly how much of the control response was suppressed) at 113.8 µmol/kg was 55.8%. This compound displayed a half-maximal inhibitory concentration (IC50) in series [3] of 35.4 µM.

Turning to `CC(=O)Oc1ccccc1C(=O)O` [ASPIRIN], the ED50 in series [4] came to 714 µmol/kg.

In series [5], `NS(=O)(=O)c1ccc(-n2nc(C(F)(F)F)cc2-c2ccc(CC(=O)O)cc2)cc1` showed an inhibition in vivo at 113.8 µmol/kg of 50%. In series [4], the median effective dose (ED50) was 114 µmol/kg. The concentration for half-maximal inhibition (IC50) in series [3] is 8.1 µM.

Take `CC(=O)OCO/N=[N+](\[O-])N1CCC[C@H]1COC(=O)Cc1ccc(-c2cc(C(F)(F)F)nn2-c2ccc(S(N)(=O)=O)cc2)cc1`: in series [6], the Ratio IC50 was found to be 14.4. Further, the Activity came out at 5.4% in series [1] and 59.6% in series [2]. Moreover, in series [5], the inhibition in vivo at 113.8 µmol/kg was found to be 46.5%. In addition, the IC50 in series [3] was determined as 13.4 µM.

Consider `[O-]/[N+](=N\O)N1CCC[C@H]1CO`, for which the Activity in series [1] is given as 84.5%; in series [2], 85%.

`CN(CCO)/[N+]([O-])=N\O`: the Activity in series [1] was 84.5%; in series [2], 84.8%.
